Data published in US7820817B2, “Modulators of muscarinic receptors” (Vertex Pharmaceuticals Incorporated, priority 2004, dated 2010).

Test system: at least one muscarinic receptor, M1, M2, M3, M4
Test: Muscarinic modulation activity (Table 3)
Assay type: cell-based
Design: key: +++: exhibited muscarinic modulation activity for at least one muscarinic receptor, M1, M2, M3, M4, at a concentration of less than 5 μM; ++: exhibited muscarinic modulation activity for at least one muscarinic receptor, M1, M2, M3, M4, at a concentration of between 30 μM and 5 μM; +: exhibited muscarinic modulation activity for at least one muscarinic receptor, M1, M2, M3, M4, at a concentration of greater than 30 μM; −: were not assayed or did not exhibit muscarinic modulation activity for at least one muscarinic receptor, M1, M2, M3, M4, at the concentration at which the assay was performed
Conditions: concentration at which modulation of at least one muscarinic receptor, M1, M2, M3, M4, was exhibited; CHO cells
Procedure: CHO cells expressing muscarinic receptors (M1 to M5) are grown as monolayers in tissue culture flasks at 37° C. in a humidified atmosphere containing 5% CO2 and passaged every 3-5 days. The growth media is Dulbecco's modified eagles medium (DMEM, Gibco Cat#12430-054), containing 25 mM Hepes and supplemented with Fetal Bovine Serum (Hyclone, cat#SH30071.03), 0.1 mM of MEM non-essential amino acids (GIBCO, Cat#11140-050), 1 mM MEM Sodium Pyruvate (GIBCO Cat#11360-070) and 100 units/ml of Penicillin G and 100 μg/ml of Streptomycin (GIBCO Cat#15140-122). The recombinant muscarinic receptor cell lines are grown under antibiotic pressure with media containing 25 μg/ml zeocin and 500 μg/ml G418 (M1-CHO), 4 μg/ml puromycin, 50 μg/ml zeocin and 2.5 μg/ml blasticidin (M2 and M4-CHO) or 50 μg/ml zeocin and 4 μg/ml puromycin (M3 and M5-CHO).
Cells are harvested at 80-90% confluence using Versene (GIBCO Cat#15040-066), collected by centrifugation and seeded 18-24 hrs prior to running the calcium assay at a density of 5,000-10,000 cells/well in […], clear-bottomed 384-well plates (BD Biocoat, poly-D-lysine, Cat#356663). The day of the experiment, the cells are washed with a plate washer (Bioteck Instruments, ELX 405) using bath1 buffer (140-mM NaCl, 4.5-mM KCl, 2-mM CaCl2, 1-mM MgCl2, 10-mM Hepes-Na, 10-mM Glucose, pH 7.4, with NaOH) containing 1 mM Probenecid. Next, the calcium dye Fluo-3 (25 μl/well of Fluo-3 AM at 4 μM, Molecular Probes F-1241, in Bath 1 buffer containing 1 mM Probenecid) is added to the 25 μl of Bath 1 remaining in each well after the plate wash and the dye is loaded at 37° C. in the tissue culture incubator for 60-90 min. The fluorescent dye is removed using the plate washer with Bath 1 containing 1 mM Probenecid, leaving 25 μl/well of this solution after the wash. Alternatively, cells can be loaded with the calcium indicator from Molecular Devices (Calcium 3 Assay Reagents, Cat #R7181) adding 5 μl of a 5× solution dye in Bath 1 containing 1 mM Probenecid (10 ml per dye flask cat#R7182 to generate a solution […]) to 20 μl of the same buffer. After loading for 60 min. the experiment can be run without having to remove the dye.
Compounds are prepared at a 2× fold concentration in a 96-well plate (round bottom, Costar Corning cat#3656), by reconstituting the pre-spotted compounds in bath 1 containing 1 mM probenecid. The final concentration DMSO is 0.5%, and the amount of DMSO is normalized across the assay plate. To determine an agonist action of the compounds on muscarinic receptors, the reconstituted compounds are added (25 μl compound/well) to the cell assay plate (containing 25 μl/well) using the multi-channel robotic system of the FLIPR 3 Instrument (Molecular Devices, Sunnyvale, Calif.). To determine a functional inhibitory action of the compounds on muscarinic receptors, the reconstituted compounds are added (25 μl compound/well) to the assay plate and pre-incubated for 15 min prior to adding 25 μl of Carbachol at 3× the EC80 for each muscarinic subtype. Alternatively, the compounds can be co-applied simultaneously with the agonist. In both assay modes, the fluorescence is recorded for 60 sec (excitation wavelength is […] and emission wavelength 540 nm) using the FLIPR 3 instrument.
The potency, efficacy and selectivity of the muscarinic compounds were evaluated by screening the compound activity across the whole family (M1 to M5 cells).
CHO cells expressing muscarinic receptors (M1 to M5) and containing a gene reporter system β-Lactamase) with transcriptional control mediated by calcium release (NFAT activation). See Zlokarnik, G; Negulescu, P. A.; Knapp, T. E.; Mere, L; Burres, N; Feng, L; Whitney, M; Roemer, K; Tsien, R. Y. Quantitation of transcription and clonal selection of single living cells with β-lactamase as reporter. Science, 1998 Jan. 2, 279(5347):84-8. The cells are grown as monolayers in tissue culture flasks at 37° C. in a humidified atmosphere containing 5% CO2 and passaged every 3-5 days. […]

Molecule	ACTIVITY (muscarinic modulation activity)
CCOC(=O)N1C2CCC1CC(CN1CCN(c3nccnc3C#N)CC1)C2 (stereo not drawn) [Compound 38, 3-[[4-(3-cyanopyrazin-2-yl)piperazin-1-yl]methyl]-8-azabicyclo[3.2.1]octane-8-carboxylic acid ethyl ester]	+++ (exhibited muscarinic modulation activity for at least one muscarinic receptor, M1, M2, M3, M4, at a concentration of less than 5 μM)
c1cc(N2CCN(C3CC4CCC3C4)CC2)ccn1 (stereo not drawn) [Compound 18, 1-norbornan-2-yl-4-(4-pyridyl)piperazine]	++ (exhibited muscarinic modulation activity for at least one muscarinic receptor, M1, M2, M3, M4, at a concentration of between 30 μM and 5 μM)
CCOC(=O)N1C2CCC1CC(N1CCN(c3ncc(-c4ccccc4)cc3C#N)CC1)C2 (stereo not drawn) [Compound 33, 3-[4-(3-cyano-5-phenyl-2-pyridyl)piperazin-1-yl]-8-azabicyclo[3.2.1]octane-8-carboxylic acid ethyl ester]	+ (exhibited muscarinic modulation activity for at least one muscarinic receptor, M1, M2, M3, M4, at a concentration of greater than 30 μM)
Clc1cncc(Cl)c1N1CCN(CC2CC3C=CC2C3)CC1 (stereo not drawn) [Compound 26, 1-(5-bicyclo[2.2.1]hept-2-enylmethyl)-4-(3,5-dichloro-4-pyridyl)-piperazine]	−
c1cc(N2CCN(C3CCC4CCC3C4)CC2)ccn1 (stereo not drawn) [Compound 61, 1-(2-bicyclo[3.2.1]octyl)-4-(4-pyridyl)piperazine]	−
N#Cc1cccnc1C1CCN(CC2CC3C=CC2C3)CC1 (stereo not drawn) [Compound 54, 2-[1-(5-bicyclo[2.2.1]hept-2-enylmethyl)-4-piperidyl]nicotinonitrile]	+++ (exhibited muscarinic modulation activity for at least one muscarinic receptor, M1, M2, M3, M4, at a concentration of less than 5 μM)
N#Cc1cccnc1N1CCN(CC2CCC3CCC2C3)CC1 (stereo not drawn) [Compound 64, 2-[4-(4-bicyclo[3.2.1]octylmethyl)piperazin-1-yl]nicotinonitrile]	+ (exhibited muscarinic modulation activity for at least one muscarinic receptor, M1, M2, M3, M4, at a concentration of greater than 30 μM)
NC(=O)c1cccnc1N1CCN(CC2CC3C=CC2C3)CC1 (stereo not drawn) [Compound 6, 2-[4-(5-bicyclo[2.2.1]hept-2-enylmethyl)piperazin-1-yl]nicotinamide]	−
Clc1cccnc1N1CCN(CC2CC3C=CC2C3)CC1 (stereo not drawn) [Compound 52, 1-(5-bicyclo[2.2.1]hept-2-enylmethyl)-4-(3-chloro-2-pyridyl)-piperazine]	++ (exhibited muscarinic modulation activity for at least one muscarinic receptor, M1, M2, M3, M4, at a concentration of between 30 μM and 5 μM)
CCOC(=O)N1C2CCC1CC(N1CCN(c3ccc(C(F)(F)F)cn3)CC1)C2 (stereo not drawn) [Compound 28, 3-[4-[5-(trifluoromethyl)-2-pyridyl]piperazin-1-yl]-8-azabicyclo[3.2.1]octane-8-carboxylic acid ethyl ester]	+++ (exhibited muscarinic modulation activity for at least one muscarinic receptor, M1, M2, M3, M4, at a concentration of less than 5 μM)
C1=CC2CC1CC2CN1CCN(c2ccccn2)CC1 (stereo not drawn) [Compound 48, 1-(5-bicyclo[2.2.1]hept-2-enylmethyl)-4-(2-pyridyl)piperazine]	++ (exhibited muscarinic modulation activity for at least one muscarinic receptor, M1, M2, M3, M4, at a concentration of between 30 μM and 5 μM)
Cc1nccnc1N1CCN(CC2CC3C=CC2C3)CC1 (stereo not drawn) [Compound 17, 2-[4-(5-bicyclo[2.2.1]hept-2-enylmethyl)piperazin-1-yl]-3-methyl-pyrazine]	+++ (exhibited muscarinic modulation activity for at least one muscarinic receptor, M1, M2, M3, M4, at a concentration of less than 5 μM)
C1=CC2CC1CC2CN1CCC(n2nnc3ccccc32)CC1 (stereo not drawn) [Compound 37, 1-[1-(5-bicyclo[2.2.1]hept-2-enylmethyl)-4-piperidyl]-1H-benzotriazole]	+ (exhibited muscarinic modulation activity for at least one muscarinic receptor, M1, M2, M3, M4, at a concentration of greater than 30 μM)
3-[4-(3-cyanopyrazin-2-yl)piperazin-1-yl]-8-azabicyclo[3.2.1]octane-8-carboxylic acid ethyl ester [Compound 45]	+ (exhibited muscarinic modulation activity for at least one muscarinic receptor, M1, M2, M3, M4, at a concentration of greater than 30 μM)
c1cc(N2CCN(C3C4CC5CC(C4)CC3C5)CC2)ccn1 (stereo not drawn) [Compound 75, 1-(2-adamantyl)-4-(4-pyridyl)piperazine]	++ (exhibited muscarinic modulation activity for at least one muscarinic receptor, M1, M2, M3, M4, at a concentration of between 30 μM and 5 μM)
N#Cc1ccc(C(F)(F)F)nc1N1CCN(CC2CC3C=CC2C3)CC1 (stereo not drawn) [Compound 53, 2-[4-(5-bicyclo[2.2.1]hept-2-enylmethyl)piperazin-1-yl]-6-(trifluoromethyl)nicotinonitrile]	+ (exhibited muscarinic modulation activity for at least one muscarinic receptor, M1, M2, M3, M4, at a concentration of greater than 30 μM)
Cc1cnc(C)c(N2CCN(C3CC4CCC3C4)CC2)n1 (stereo not drawn) [Compound 40, 2,5-dimethyl-3-(4-norbornan-2-ylpiperazin-1-yl)-pyrazine]	−
Cc1cccc(N2CCN(CC3CC4C=CC3C4)CC2)n1 (stereo not drawn) [Compound 15, 1-(5-bicyclo[2.2.1]hept-2-enylmethyl)-4-(6-methyl-2-pyridyl)-piperazine]	++ (exhibited muscarinic modulation activity for at least one muscarinic receptor, M1, M2, M3, M4, at a concentration of between 30 μM and 5 μM)
CCOC(=O)N1C2CCC1CC(N1CCN(c3ccc(C(C)=O)cn3)CC1)C2 (stereo not drawn) [Compound 51, 3-[4-(5-acetyl-2-pyridyl)piperazin-1-yl]-8-azabicyclo[3.2.1]octane-8-carboxylic acid ethyl ester]	+++ (exhibited muscarinic modulation activity for at least one muscarinic receptor, M1, M2, M3, M4, at a concentration of less than 5 μM)
Cc1cccnc1N1CCN(CC2CC3C=CC2C3)CC1 (stereo not drawn) [Compound 20, 2-[4-(5-bicyclo[2.2.1]hept-2-enylmethyl)piperazin-1-yl]-3-methyl-pyridine]	+++ (exhibited muscarinic modulation activity for at least one muscarinic receptor, M1, M2, M3, M4, at a concentration of less than 5 μM)
Cc1ccc(C#N)c(N2CCN(CC3CC4C=CC3C4)CC2)n1 (stereo not drawn) [Compound 62, 2-[4-(5-bicyclo[2.2.1]hept-2-enylmethyl)piperazin-1-yl]-6-methyl-nicotinonitrile]	+++ (exhibited muscarinic modulation activity for at least one muscarinic receptor, M1, M2, M3, M4, at a concentration of less than 5 μM)
